Source: patent US20250177557A1, “METHODS OF PRODUCING MICROBUBBLE DRUG CONJUGATES, VIRAL GENE THERAPY MICROBUBBLE CONJUGATES AND TARGETED MICROBUBBLES” (priority 2022, published 2025)

Legend:
[1] = patients; cited from earlier work
[2] = system: human SHSY-5Y cells; assay: Neuroprotection of differentiated SHSY-5Y cells against parkinsonian neurotoxins (CFDA cell viability); assay type: cell-based
Experimental: Neuroprotection was tested in the well-established neuronal model of human SHSY-5Y cells (Lopes, F. M.,. et al. (2010) Brain Res. 1337, 85-94) treated with parkinsonian neurotoxins. Human SHSY-5Y cells were grown in 24 well dishes and differentiated into neuron-like cells by treatment with 10 μM retinoic acid (RA) for 7 days (FIG. 8A).
Cell viability was quantified by the CFDA assay as described previously (Sandhu, J. K., et al. (2009) Neurobiol. Dis. 33, 405-414.).
Recombinant human GDNF at 50 ng/ml was used as a positive control.

[3] = MR guided focused ultrasound, one hemisphere sonicated
Experimental: AAV2-GFP MDCs were injected into healthy rodents and FUS sonications used to open the BBB in the two brain regions affected by Parkinson's disease, the striatum (ST) and substantia nigra (SN). MR contrast agent gadolinium was co-injected and MR imaging performed to confirm BBB opening in the two regions.
CDNF protein neurotrophic drug was conjugated to MDCs and delivered to the SN and ST in this manner. Only one hemisphere was sonicated so the animals acted as their own control.

[4] = brain mets patients; cited from earlier work

ipilimumab
Incidence of grade 3 or -4 treatment-related AEs [1]: 28%

CDNF-MDCs: Cerebral Dopamine Neurotrophic factor protein conjugated to microbubbles
Neuroprotection against thapsigargin (cell viability) ([2]; 1.0 μM thapsigargin ~16 h, pre-treatment, rhGDNF 50 ng/ml, CDNF-MDCs 25-250 ng/ml): completely protected
Neuroprotection against MPP+ (cell viability) ([2]; 1.0 mM MPP+ ~16 h, pre-treatment, rhGDNF 50 ng/ml, CDNF-MDCs 25-250 ng/ml): completely protected
Concentrations at which maximum neuroprotection was reached ([2]; MPP+ or thapsigargin): 25 to 250 ng/mL
CDNF concentration delivered to ST and SN, sonicated vs. non-sonicated hemisphere (ELISA tissue analysis) [3]: significant CDNF concentration delivered to the sonicated hemispheres

Keytruda: checkpoint inhibitor antibody
Response, share of patients [4]: about one third
